Test results as given in publication PMC12040169 (PLOS Biology, 2025).

Assay: in vitro
Details: human, hela cells, % viability

Row | Compound | viability at 28.5 h, 10 µM
1 | O=C(NCCN1CCCC1)C1CCCN(c2nc3c(-c4ccccc4)csc3c(=O)[nH]2)C1 (stereo not drawn) [CBK215507] | 109%
2 | O=C(NCCN1CCOCC1)C1CCCN(c2nc3c(-c4ccccc4)csc3c(=O)[nH]2)C1 (stereo not drawn) [CBK215509] | 106%
3 | Cc1ccc(-c2csc3c(=O)[nH]c(N4CCCC(C(=O)NCC(N)=O)C4)nc23)cc1 (stereo not drawn) [CBK215542] | 98.3%
4 | Cc1ccc(-c2csc3c(=O)[nH]c(N4CCCC(C(=O)NCc5cccnc5)C4)nc23)cc1 (stereo not drawn) [CBK215546] | 91.7%
5 | COCCCNC(=O)C1CCCN(c2nc3c(-c4ccc(C)cc4)csc3c(=O)[nH]2)C1 (stereo not drawn) [CBK215548] | 83.1%
6 | O=C(C1CCCN(c2nc3c(-c4ccccc4)csc3c(=O)[nH]2)C1)N1CCOCC1 (stereo not drawn) [CBK215582] | 83.7%
7 | COc1cccc(CNC(=O)C2CCN(c3nc4c(-c5cccc(C)c5)csc4c(=O)[nH]3)CC2)c1 [CBK215603] | 84.9%
8 | Cc1cccc(-c2csc3c(=O)[nH]c(N4CCC(C(=O)NCc5cccnc5)CC4)nc23)c1 [CBK215624] | 86.8%
9 | Cc1cccc(-c2csc3c(=O)[nH]c(N4CCC(C(=O)NCCc5cccnc5)CC4)nc23)c1 [CBK215627] | 94%
10 | COCCNC(=O)C1CCN(c2nc3c(-c4cccc(C)c4)csc3c(=O)[nH]2)CC1 [CBK215629] | 93.1%
11 | O=[N+]([O-])c1ccc(Cl)cc1N/N=C1\CN2CCC1CC2 [CBK217272] | 108%
12 | CC(=O)NC(Cc1c[nH]c2ccccc12)C(=O)O (stereo not drawn) [CBK217373] | 95.9%
13 | CCOC(=O)c1c(CSc2ccc(Cl)cc2)n(C)c2cc(Br)c(O)c(CN(C)C)c12 [CBK217489C] | 108%
14 | CC(=O)c1c(C)n(O)c2ccc(Cl)cc2c1=O [CBK217746] | 107%
15 | COc1ccc(-c2c(C(F)(F)F)oc3c(CN4CC(C)OC(C)C4)c(O)ccc3c2=O)cc1OC (stereo not drawn) [CBK217829] | 100%
16 | CCCCc1c(C(=O)O)cc(OC)cc1C(=O)O [CBK217866] | 93.5%
17 | C[N+]1(C)CCCC1c1cc(Br)cnc1N (stereo not drawn) [CBK217873I] | 90.8%
18 | CC(C)(C)c1ccc(Oc2c(C(F)(F)F)oc3cc(OCC(=O)O)ccc3c2=O)cc1 [CBK217882] | 94.1%
19 | CC(Cc1c[nH]c2ccccc12)NC(=O)CN (stereo not drawn) [CBK218213C] | 100%
20 | c1cncc(CN2CCN(Cc3c[nH]c4ccccc34)CC2)c1 [CBK218281] | 92.2%
21 | COc1ccc(NC(=O)CSc2nc3c(N)ncnc3[nH]2)cc1 [CBK218441] | 91.4%
22 | CC1NC(C(=O)O)Cc2c1[nH]c1ccccc21 (stereo not drawn) [CBK218664] | 102%
23 | O=C(O)COc1cccc2ccccc12 [CBK218704] | 106%

Row | Compound | viability at 28.5 h, 10 µM
24 | CC(=O)NC(CCCN=C(N)N)C(=O)O (stereo not drawn) [CBK218726] | 107%
25 | Cc1ccc2nc(NC3=NC(CC(=O)O)C(=O)N3)nc(C)c2c1 (stereo not drawn) [CBK218806] | 90.3%
26 | O=C(O)c1ccc(NC2OC(CO)C(O)C2O)cc1 (stereo not drawn) [CBK218836] | 95.9%
27 | NC(=O)NC(Cc1c[nH]c2ccccc12)C(=O)O (stereo not drawn) [CBK218895] | 105%
28 | COc1cc2c(cc1OC)C(C(=O)O)CC(=O)N2 (stereo not drawn) [CBK218955] | 87.4%
29 | COc1cc(C2NC(C(=O)O)Cc3c2[nH]c2ccccc32)cc(OC)c1OC (stereo not drawn) [CBK219193] | 101%
30 | CCc1c(O)c2ccccc2n(Cc2ccccc2)c1=O [CBK219367] | 90%
31 | Cc1nc2cc(C(=O)O)ccc2[nH]1 [CBK220035] | 84.6%
32 | O=C(Nc1ccc2c(c1)OCCO2)c1cnccn1 [CBK220830] | 92.8%
33 | O=C(CSc1nc2ccccc2o1)N1c2ccccc2Sc2ccccc21 [CBK221524] | 97.7%
34 | Clc1ccc(SCc2cccc(CSc3ccc(Cl)c(Cl)c3)n2)cc1Cl [CBK223404] | 86.3%
35 | O=C1c2ccccc2C(=O)N1CN(CCc1ccc(Cl)cc1)CN1C(=O)c2ccccc2C1=O [CBK225934] | 90.8%
36 | CC(=O)Nc1ccc(NC(=O)CSCC(=O)O)cc1 [CBK226269] | 89.3%
37 | NS(=O)(=O)c1ccc(CNS(=O)(=O)Cc2ccccc2)cc1 [CBK228048] | 87%
38 | O=C(O)Cc1c[nH]c2ccccc12 [CBK228897G] | 102%
39 | O=C(NCCc1c[nH]c2ccccc12)c1cccs1 [CBK231038] | 88.2%
40 | O=C(O)CCCC(=O)Nc1ccccc1-c1ccccc1 [CBK231405] | 94.9%
41 | Cc1ccc(OCc2cc(-c3ccco3)on2)c([N+](=O)[O-])n1 [CBK233261] | 98.8%
42 | Cc1c(C(=O)C2=C(O)C(=O)N(Cc3cccnc3)C2c2ccncc2)cnn1-c1ccccc1 (stereo not drawn) [CBK233899] | 114%
43 | Cc1ccc(C2C(C(=O)c3sc(-c4ccccc4)nc3C)=C(O)C(=O)N2CCN(C)C)o1 (stereo not drawn) [CBK234004] | 107%
44 | Cc1oc(NC(=O)CN2CCN(c3ccccn3)CC2)c(C#N)c1C [CBK236456] | 96.9%
45 | CC1(C)NC(=O)N(CCCC(=O)NCc2coc(-c3cccs3)n2)C1=O [CBK237157] | 105%
